Results on 1 compound are retold here after patent US20230076415A1, “METHODS AND COMPOSITIONS FOR TREATING MELANOMA” (INSERM (INSTITUT NATIONAL DE LA SANTÉ ET DE LA RECHERCHE …, priority 2020, published 2023).

Experiment [1] relates to A375 cells. The experiment can be described thus: Survival analysis (crystal violet staining) of A375 cells treated with 8TQ. The class given is cell-based. The following applies: Homo sapiens, A-375, increasing doses of 8TQ, 72h, read-out: calculated IC50 for 8TQ. Here is the method: (§1) FIG. 3. Pharmacological inhibition of PSMD14 impairs melanoma cell survival. A) Survival analysis performed on A375 cells treated with vehicle or increasing doses of 8TQ (0.27, 0.9, 3 μM). After 72h, cells were stained with crystal violet. Right, cell viability was quantified on lysates by analyzing crystal violet staining at 595 nm. Histograms represent the mean±SD of three independent experiments in duplicate (***P<0.001; ns, non significant). B) Effect of PSMD14 inhibition on melanoma cell viability. A375 cells were treated with vehicle or increasing doses of 8TQ (0.27, 0.9, 3 μM). After 72h, cells were stained with Annexin V-FITC and DAPI and analysed by flow cytometry. Histograms show the percentage of cell death (Annexin V and DAPI positive cells) (mean±SEM, n=3). The calculated mean IC50±sem is shown. (** P<0.005, ***P<0.001). C) A subset of melanoma cells was treated with increasing doses of 8TQ. After 72h, cells were labeled and analyzed as in b). The corresponding IC50 of 8TQ was determined by measuring cell viability. Box plots indicating the upper/lower quartile and the median with whiskers from min to max values from 2 experiments performed in triplicate.
After treatment, cells were fixed in PFA 3% during 20 min, washed with PBS and stained with crystal violet 0.4% in ethanol 20% for 30 min. After washing, crystal violet was solubilized from fixed cells. […]

In experiment [2] the test system is A375 cells. The experiment can be described thus: Western blot analysis of A375 cells. In kind it is cell-based, human. To be noted: data not shown. An excerpt: Culture reagents and DAPI were purchased from Thermo Fischer Scientific. Vemurafenib (PLX4032) and Trametinib (GSK1120212) were from Selleckchem. Chemicals, cycloheximide (CHX), 8TQ and puromycin were from Merck Millipore. The antibodies used for western blotting were as follow: PSMD14 (Generon), HSP90, p53 (Santa Cruz Biotechnology), K48-linkage specific polyubiquitin (D9D5), p21, CDK2, PARP, cleaved caspase 3, phospho-Thr202/Tyr204 Erk1/2 (Cell Signaling Technology), phospho-Ser139 H2AX (BioLegend). Alexa Fluor TexasRed-conjugated secondary antibodies were from ThermoFisher Scientific.
For orientation: Immunoblotting shows a protein as a band on a membrane.

The subject of experiment [3] is human (M099, M029, Sbcl2, 501Mel, WM9 and MEWO) and murine (Yumm1.7 and MaNras) melanoma cell lines. The experiment can be described thus: IC50 of 8TQ on a collection of melanoma cell lines and short-term cultures. In kind it is cell-based. The protocol:
as §1, with “Box plots indicating the upper/lower quartile and the median with whiskers from min to max values from 2 experiments performed in triplicate.” left out
(§2) After 24 to 48h of treatment, cell viability was evaluated by flow cytometry following staining with Annexin-V-FITC and propidium iodide (PI) (ThermoFisher Scientific) as previously described (27). The percentage of dead cells (Annexin-V-FITC+ and PI+ cells) was then determined. […]

Experiment [4] deals with Yumm1.7 murine melanoma cells (BrafV600E/Pten null/cdkn2a null). Kind of experiment: Yumm1.7 syngeneic melanoma model. The class given is in vivo, C57Bl/6J mice. The protocol:
(§3) FIG. 4. The PSMD14 inhibitor 8TQ inhibits tumor growth in melanoma syngeneic models. A) 2×10^5 murine melanoma cells Yumm1.7 (derived from BrafV600E/Pten null/cdkn2a null mice) were subcutaneously inoculated into both flanks of 6-week old C57Bl/6J female mice. After one week, mice were injected i.p 3 times per week with 8TQ (10 mg/kg) or vehicle. The tumor size was measured with a caliper and the tumor volume was determined. Data shown are mean±SD of tumor volume (n=12; ***, ***P<0.001, 2way ANOVA). B) 4×105 murine melanoma MaNRas (NRasQ61K) were subcutaneously injected into both flanks of 6-week old C57Bl/6J female mice. After two weeks, mice were injected i.p every two days with 8TQ (10 mg/kg) or vehicle. The tumor size was measured with a caliper and the tumor volume was determined. Data shown are mean±sd of tumor volume (n=12; ***, ***P<0.001, 2way ANOVA).
Slices (4 μm) from paraffin-embedded tumors sections were Tissue sections were processed for dewaxing, rehydration and antigenic heat unmasking using the PT Module Lab Vision™ (ThermoFisher Scientific) according to the manufacturer's instructions. Tissue sections were then labelled with primary antibodies diluted in 1% BSA (wt/vol) followed by standard avidin-biotin-peroxidase staining (Vector Laboratories) using the automated staining system Myreva SS30 (Microm Microtech, France). Primary antibodies were as follows: phospho-H2AX (Merck Millipore), Ki67 (Agilent Dako), cleaved caspase 3 (Cell Signaling Technology).
All mouse experiments were carried out in accordance with the Institutional Animal Care and the local ethics committee (CIEPAL-Azur agreement NCE/2018-509). The animals were maintained on a 12h light/dark cycle in a temperature-controlled facility at 22° C. and were provided with free access to food (standard laboratory chow diet from UAR). For melanoma xenografts, 2×106 BRAF inhibitor resistant A375Riv human melanoma cells were subcutaneously implanted into both flanks of 6 week old athymic nude nu/nu female mice (Envigo). For melanoma syngeneic models, 2 to 4 105 of Yumm1.7 or MaNras murine melanoma cells were subcutaneously inoculated into 6 week old C57Bl/6J female mice (Envigo). When tumors became palpable (0.05 to 0.1 cm3), mice were injected intraperitoneally once every other day with vehicle or 10 mgkg-1 8TQ in a 90:9:1 (v/v/v) mixture of Labrafil, dimethylacetamide, and Tween 80. The tumor size was measured with a caliper and the tumor volume was determined using the formula: Volume=(length×Width2)/2. At the end of the experiment, mice were sacrificed and tumors dissected, weighed, fixed and embedded in paraffin for IHC analysis.

Experiment [5] concerns A375RIV, M229R, M238R, M249R and A375DDR melanoma cells. Kind of experiment: Viability of BRAFi- and BRAFi/MEKi-resistant melanoma cells treated with 8TQ. In kind it is cell-based, human. Here is the method:
(§4) FIG. 5. Targeting PSMD14 overcomes resistance to MAPK pathway inhibition. A) Melanoma cell lines resistant to BRAFi (A375RIV, M229R, M238R and M249R) or double resistant to BRAFi and MEKi (A375DDR) were transfected with siCTRL or siPSMD14 #1. After 72h, cell colonies were stained with crystal violet and the absorbance at 595 nm was measured. Box plots show the upper/lower quartile and the median with whiskers from min to max values (n=3, ***P<0.001). B) The above panel of melanoma cells was treated with increasing doses of 8TQ. After 72h, cells were labeled and analyzed. The corresponding IC50 of 8TQ was determined. Box plots indicate the upper/lower quartile and the median with whiskers from min to max values from 2 experiments performed in triplicate. C) 1×10^6 A375Riv human melanoma cells were implanted into both flanks of nude mice. After 2 days, mice were injected i.p every day with 8TQ (10 mg/kg) or vehicle. The tumor size was measured with a caliper and the tumor volume was determined. Data shown are mean±SD of tumor volume (n=12; ***, ***P<0.001, 2way ANOVA).
as §2

The test system of experiment [6] is A375Riv human melanoma cells. The experiment can be described thus: BRAFi-resistant A375Riv xenografts. The class given is in vivo. The following applies: A375Riv xenografts in nude mice, 8TQ 10 mg/kg i.p. vs vehicle. Here is the method:
as §4
All mouse experiments were carried out in accordance with the Institutional Animal Care and the local ethics committee (CIEPAL-Azur agreement NCE/2018-509). […] The tumor size was measured with a caliper and the tumor volume was determined using the formula: Volume=(length×Width2)/2. […]

Experiment [7] has as its system MaNRas murine melanoma cells (NRasQ61K). Kind of experiment: MaNRas syngeneic melanoma model. The following applies: 8TQ 10 mg/kg i.p. vs vehicle, C57Bl/6J mice. The class given is in vivo. The protocol: as §3
All mouse experiments were carried out in accordance with the Institutional Animal Care and the local ethics committee (CIEPAL-Azur agreement NCE/2018-509). The animals were maintained on a 12h light/dark cycle in a temperature-controlled facility at 22° C. and were provided with free access to food (standard laboratory chow diet from UAR). […] The tumor size was measured with a caliper and the tumor volume was determined using the formula: Volume=(length×Width2)/2. […]

Experiment [8] deals with 501Mel and A375 melanoma cells. The experiment can be described thus: Phosphorylated H2AX after 8TQ. The class given is cell-based, human. To be noted: increased doses of 8TQ, 48h, data not shown. Here is the method:
For phospho-H2AX (pH2AX) foci staining, cells grown on coverslips or culture dishes were fixed with 4% paraformaldehyde and permeabilized in 50 mM Tris-HCl, pH 7.4, 150 mM NaCl, 0.3% Triton X-100 for 1 h at 4° C. Cells were then blocked in 50 mM Tris-HCl, pH 7.4, 150 mM NaCl, 0.03% Triton X-100, 1% BSA for 1 h at 37° C., and stained with anti-phospho-Ser139 H2AX (1:1000, Merck Millipore #05-636) at 4° C. overnight. After extensive washings, cells were stained with Alexa Fluor TexasRed-conjugated secondary antibodies and 10 μg/ml DAPI for 1 h at room temperature. After washing, cells were mounted with ProLong Gold Antifade Mounting Oil (Thermo Fischer Scientific). The percentage of cells positive for phospho-H2AX foci was determined by analyzing 200 randomly chosen cells and the foci-positive cells were defined as nuclei with at least one large focus or a granular pattern of fluorescence.

Experiment [9] concerns A375 cells. The experiment can be described thus: Cell death by Annexin V-FITC/DAPI flow cytometry. The following applies: 8TQ 0.27, 0.9, 3 μM, 72h. In kind it is cell-based, human. Here is the method:
FIG. 2. PSMD14 depletion has a potent cytotoxic effect on melanoma cells. A) Experimental validation of the siDUB screening on melanoma cell proliferation. 501Mel and A375 melanoma cells were plated 10,000 cells/well in a 24-well plate and transfected with a control siRNA (siCTRL) or 3 different siRNA sequences targeting PSMD14 (siPSMD14 #1, #2 and #3). Cell confluence was imaged for 48 h using the IncuCyte Zoom live imaging system. Curves represent normalized cell proliferation of each siRNA relative to siCTRL. Data are the mean±SEM (n=3). ***P<0.001, 2-way ANOVA analysis. B) Colony survival analysis after PSMD14 depletion (siPSMD14 #1, #2 and #3) compared to control siRNA (siCTRL). 501Mel and A375 cells were transfected with siRNAs, re-seeded at 2,000 cells/well and grown for 1 week. Colonies were stained with crystal violet. […] Box plots show the mean±SEM of crystal violet quantification relative to siCTRL (n=3, ***P<0.001.). […] After 72h, cells were labeled with Annexin V-FITC and DAPI and analysed by flow cytometry. […]
FIG. 3. […] Right, cell viability was quantified on lysates by analyzing crystal violet staining at 595 nm. […] After 72h, cells were stained with Annexin V-FITC and DAPI and analysed by flow cytometry. […] The calculated mean IC50±sem is shown. […] After 72h, cells were labeled and analyzed as in b). The corresponding IC50 of 8TQ was determined by measuring cell viability. […]

Setting [10] is: Yumm1.7 tumors, vs vehicle, data not shown.
[11] abbreviates: immunostaining on tumor sections, data not shown.

A word on the IC50: it is the concentration needed to halve the response being measured. As to `Sc1cccc2cccnc12` [8TQ, quinoline-8-thiol], the IC50 in [1] was 0.66 µM. Also, in experiment [2], the “accumulation of poly-ubiquitinated proteins” value is listed as “induced the accumulation”, the “expression of cleaved PARP” value is recorded as “induced” and the “expression of cleaved caspase-3” value is “induced”. In addition, the half-inhibitory concentration (IC50) in experiment [3] (collection of human and murine melanoma cell lines and short-term cultures, 72h) is 0.25 to 0.75 µM. Moreover, in experiment [3] (irrespective of the mutational status or the disease stage), the melanoma cell viability result is reported as “markedly inhibited”. Further, in experiment [4] (8TQ 10 mg/kg i.p. vs vehicle, C57Bl/6J mice), the Yumm1.7 tumor growth result is listed as “significantly decreased”. Also, in experiment [4] (setting [10]), the “tumor size at the experiment endpoint” value is “markedly reduced” and the “tumor weight at the experiment endpoint” value is listed as “markedly reduced”. Besides, in experiment [4] (setting [11]), the “staining of the apoptosis marker cleaved caspase 3” value was “increased staining” and the “staining of the cell proliferation marker Ki67” value is given as “decreased staining”. For the same compound, the “viability of BRAFi- and BRAFi/MEKi-resistant cells” value in experiment [5] (doses of 8TQ, 72h) is listed as “potently decreased”. In addition, in experiment [5] (resistant cells compared with parental counterparts), the “IC50 of 8TQ” value was “in the same μM range”. Moreover, the tumor development entry in [6] is given as “dramatically abrogated”. Further, the MaNRAS tumor growth result in experiment [7] is on record as “significantly decreased”. In addition, in experiment [8], the “expression of phosphorylated H2AX” value was “elevated expression”. In addition, in experiment [9], the “apoptotic cell death (Annexin V-FITC/DAPI staining)” value is given as “dose-dependent increase”.
